This experiment relates to SH-SY5Y cells. Put plainly: Western blot of tau phosphorylation and kinases in SH-SY5Y cells transfected with pCAX APP 695 and pRK5-EGFP-Tau P301L. As to conditions: 0.1 μM, 24 h. In kind it is cell-based, human. The procedure: Images represented magnification at ×100. b Cells were transfected with pCAX APP 695 for 24 h, harvested, and cell lysates were subjected to Western blotting. c, d SH-SY5Y and Neuro-2a cells were transfected with pCAX APP 695 and/or pRK5-EGFP-Tau P301L for 24 h. Cell lysates were prepared for western blot analysis of the indicated proteins. e, f Cells were transfected with pCAX APP 695 and pRK5-EGFP-Tau P301L for 24 h and were then incubated with or without MPT0G211 or ACY-1215 (0.1 μM) for another 24 h. Cell lysates were subjected to western blot analysis using the indicated antibodies. Results are presented as the mean ± SEM from three independent experiments. **p < 0.01, ***p < 0.001 compared with the control group; ^#p < 0.05, ^##p < 0.01 compared with the indicated groups
Cell lysates were prepared for western blot analysis of the indicated proteins. Results are presented as the mean ± SEM. *p < 0.05, **p < 0.01, and ***p < 0.001 compared with the control group; ^#p < 0.05, ^##p < 0.01, ^###p < 0.001 compared with the indicated groups
Cells were seeded 1 day before transfection. The plasmids pCAX FLAG APP and pRK5-EGFP-Tau P301L (1 μg each) and 1 μL of TurboFect transfection reagent were mixed for 20 min at room temperature, added to the cells, and the suspensions were incubated for 24 h at 37 °C in a humidified atmosphere containing 5% CO2.
Cells (1 × 10^6) were incubated for 10 min at 4 °C in lysis buffer (20 mM HEPES, pH 7.4, 2 mM EGTA, 50 mM β-glycerophosphate, 0.1% Triton X-100, 10% glycerol, 1 mM dithiothreitol, 1 μg/mL leupeptin, 5 μg/mL aprotinin, 1 mM phenylmethylsulfonyl fluoride, and 1 mM sodium orthovanadate), scraped from the plate, incubated on ice for 10 min, and centrifuged at 17,000 × g for 30 min at 4 °C. Protein samples (30 μg) were electrophoresed through sodium dodecyl sulfate-polyacrylamide gels (SDS-PAGE) and transferred onto a nitrocellulose membrane, which was then blocked by incubation for 30 min at room temperature with 5% fat-free milk in PBS. Immunoblotting was performed by overnight incubation at 4 °C with primary antibodies in PBS, followed by incubation for 1 h at room temperature with HRP-conjugated secondary antibodies. Bound antibodies were measured using ECL reagent (T-Pro Biotechnology, New Taipei City, Taiwan), and the membrane was placed on a photographic film. Cell lysates (30 μg) were incubated with antibodies (1 μg each) and protein A/G agarose beads overnight at 4 °C. The precipitated beads were washed three times with 1 mL of ice-cold cell lysis buffer, and bound immune complexes were separated using 8% SDS-PAGE, followed by immunoblotting using the indicated primary antibody.

Entries after “also recorded” stand apart in the source; their conditions may differ.

These results are taken from article PMC5974403, “The novel histone de acetylase 6 inhibitor, MPT0G211, ameliorates tau phosphorylation and cognitive deficits in an Alzheimer’s disease model” (Cell Death & Disease, 2018).

`O=C(NO)c1ccc(CNc2cccc3cccnc23)cc1` [MPT0G211, N-hydroxy-4-((quinolin-8-ylamino)methyl)benzamide]: the “phosphorylation of tau Ser396” value (SH-SY5Y transfected hAPP 695 + hTau P301L) is reported as “significantly inhibited; also recorded: significantly attenuated”. Besides, under “SH-SY5Y transfected”, the “CDK5, p25, or p35 expression” value is “no marked changes”; the “phospho-GSK3β on Ser9” value is given as “significant phospho-GSK3β increases”; the “phospho-GSK3β on Ser216” value is listed as “a decrease”; the “phosphorylation of tau Ser404” value is reported as “significantly attenuated”.
